# In US20120321584A1, “PROCESSES FOR PREPARING AMINE SALTS OF KMUP-3 AND USE THEREOF” (KAOHSIUNG MEDICAL UNIVERSITY, priority 2011, published 2012):
# How the values were obtained:
# [1] = test system: electrically-stimulated left atria; assay: Electrically-stimulated beating left atrium, organ bath; type: cell-based, guinea-pig; conditions: propranolol and Y27632 1 μM, C3 exoenzyme 50 μg/mL, ketanserin 1.0 μM, L-NAME 100 μM
# Experimental: (§1) Organ bath experiments and tissue procurement. Guinea-pigs were killed by a blow on the head. Their hearts were quickly excised and trimmed of excess tissues. The atrium was carefully removed and placed at room temperature (20˜25° C.) in a Krebs solution of the following composition (mM): NaCl 113, KCl 4.8, CaCl2 2.2, KH2PO4 1.2, MgCl2 1.2, NaHCO3 25, dextrose 11.0; bubbled with a 95% O2+5% CO2 mixture, followed by separation of right and left atrium for subsequent experiments.
# Quiescent left atria free of connective tissues were dissected and mounted in an organ bath under a resting tension of 0.5 g. Organs were bathed at 32.5° C. in aerated Krebs solution and electrically stimulated with 1 Hz at […] via two platinum electrodes placed at either side. The positive inotropic effect was measured by determining the cumulative concentration-response curves in the presence of KMUP-3 or KMUP-3 amine salt (0.1, 1.0, 10, 100 μM). To examine the possible involvement of NO and cAMP/cGMP in the action of KMUP-3 or KMUP-3 amine salt on electrically-stimulated beating atria, pre-incubated with a ROCK inhibitor Y27632 (1.0 μM), a β-adrenoceptor blocker propranolol (1.0 μM), eNOS inhibitors L-NAME (100 μM), 7-nitroindazole (100 μM) and 5-HT inhibitor ketanserin (1.0 μM) was performed for 15 min prior to the addition of KMUP-3 or KMUP-3 amine salt to measure the development of beating force and heart rate for 10 min.
# PKA = PKA expression in electrically-stimulated left atria, Western blotting; type: cell-based, guinea-pig; conditions: Y27632 1-100 μM
# Experimental: (§2) Protein extraction and Western blotting analysis. Briefly, after incubation with test agents in an organ bath, isolated beating atrium was frozen and pulverized to a fine powder at the temperature of liquid nitrogen. Atrium powders were then homogenized in protein extraction reagent (Pierce Biotechnology, Inc., Rockford, Ill.) by sonication. The samples were sonicated 10 sec three times and centrifuged at 13,000 rpm at 4° C. for 30 min. The protein concentrations of supernatants were determined by using bovine serum albumin as the standard. The cell extracts were then boiled in a ratio of 4:1 with sample buffer (Tris 100 mM, pH 6.8; glycerol 20%, Sodium dodecyl sulfate (SDS) 4% and bromophenol blue 0.2%). Electrophoresis was performed using 10% SDS-PAGE and transferred to nitrocellulose membranes (Millipore Corp., Billerica, Mass.). The membrane was blocked with Tris-buffered saline (TBS; 20 mM Tris and 137 mM NaCl, pH 7.6) containing 0.1% Tween 20 (TTBS) and 5% nonfat milk at room temperature for 1 h, washed with TTBS, and then incubated overnight at 4° C. in the appropriate primary antibody for PKARI, RhoA, ROCKII, p-CIP-17, CPI-17 and PKG1α1β. The membranes were washed in TTBS before being incubated with horseradish peroxidase-conjugated antibody against mouse, goat, or rabbit IgG for 1 hr. Membranes were then washed in TTBS and developed with the enhanced chemiluminescence for the detection of the specific antigen. The intensity of the bands was measured by densitometry. eNOS or phosphorylated eNOS were extracted from cell culture of neonatal myocytes, PA ring and aortic ring (2-3 mm) of rats and measured by Western blotting analysis.
# (§3) PK, ROCKII and CIP-17 expression and pretreatment of beating left atrium. To examine whether KMUP-3 or KMUP-3 amine salt affects the protein expression in beating atrium, PKA, ROCKII, PKG and phosphorylated CIP-17 was determined by Western blotting, respectively. […]
# [2] = Hemodynamic measurements in anesthetized rats (LVSP, dP/dt, MABP, HR); type: in vivo, Wistar rats; conditions: intravenous pretreatment at 1 mg/kg; KMUP-3 1 mg/kg, i.v.
# Experimental: Hemodynamic measurements were carried out in male Wistar rats weighting 300˜350 g, anesthetized with pentobarbital sodium (40 mg kg^−1, i.p.). In brief, polyethylene tubing (PE50) was placed in the trachea to keep the airway patent, and rats continued to breathe spontaneously. Subsequently, rats were used to record hemodynamic and cardiovascular function. Vascular catheters (PE50) were placed in the femoral arteries to measure mean arterial blood pressure (MABP) and heart rate (HR). Changes of MABP and HR caused by KMUP-3 or KMUP-3 amine salt were recorded from the femoral artery with a pressure transducer (Gould, Model P50, U.S.A.), connected with a Pressure Processor Amplifier (Gould, Model 13-4615-52, U.S.A.). A femoral vein was used for intravenous administration of KMUP-3 or KMUP-3 amine salt. A specialized transducer tip catheter was placed in the right carotid artery and advanced into the left ventricle of the heart for measurement of left ventricular pressure (LVSP) or contractility; dP/dt at 50 mm Hg, an index of cardiac contractility, was derived from the left ventricular pressure trace; post-hoc vascular resistance was calculated as mean arterial blood pressure/peripheral cardiac output (MABP/PCO). Body temperature was monitored throughout the experiment and maintained between 37 and 37.5° C. by using a heating pad.
# Each dose of active drugs was administered as a 20-min infusion in a series of escalating doses dissolved in a 5% dextrose water vehicle. […] KMUP-3 HCl or KMUP-3 amine salt were infused at 0.03, 0.05, and 0.075 μg/kg/20 min for the measurement of FABP, intraperitoneally injected at 0.03, 0.05 and 0.1 mg/kg for the measurement of MABP and HR and infused by intravenous injection for 2 min at 0.5, 1.0, 3.0 mg/kg dissolved in 5% dextrose water vehicle (2 ml) for the measurement of LV systolic pressure (LVSH), ABP, dP/dt, and HR. The primary hemodynamic variables were computed using commercial software and a signal processing workstation. Animals were randomly divided into one of six treatment or vehicle groups. After the completion of the surgical protocol, animals were allowed to stabilize for 1 h, and baseline data were collected at 5-min intervals for 30 min before the treatment.
# ROCKII = ROCKII expression in electrically-stimulated left atria, Western blotting; type: cell-based, guinea-pig; conditions: Y27632 1-100 μM
# Experimental: as §2, §3
# PKCα = PKCα translocation of beating left atrium; type: cell-based, guinea-pig; conditions: Y27632 1-10 μM
# Experimental: To determine the effect of KMUP-3 or KMUP-3 amine salt on PKCa translocation, isolated left beating atrium was incubated with KMUP-3 or KMUP-3 amine salt for 30 minutes (0.1-10 μM). In brief, frozen left atrium was pulverized to a fine powder at the temperature of liquid nitrogen for preparation of cytosolic and membrane fractions. Isolated left atrium tissues were then homogenized by a sonicator (XL-2020, Heat Systems Ultrasonic, Plainview, N.Y., USA) at 4 in 1 ml of homogenization buffer containing 20 mM Tris-HCl (pH 7.5), 1 mM dithiothreitol (DTT), 5 mM EGTA, 2 mM EDTA, 0.5 mM PMSF, 20 μM leupeptin and 20 μM aprotinin. The cytosol fractions were obtained by collecting the supernatants after centrifuging the cells at 100,000×g for 45 minutes at 4. The pellets were resonicated in the homogenizing buffer with 1% Triton X-100, centrifuged again at 100,000×g for 45 minutes at 4, and the supernatants collected as membrane fractions. The extracts for cytosol and membrane fractions were denatured by heating at for 10 minutes in sampling buffer, and an aliquot containing 20 μg of total protein was subjected to a 10% SDS-polyacrylamide gel electrophoresis. […] Protein was detected with horseradish peroxidase (HRP) conjugated secondary antibody (BD Transduction Laboratories). […] The immunoreactive bands were detected by chemiluminescence (ECL) reagents (PerkinElmer Life Sciences, Inc).
# L-type Ca2+ channels = assay: Ca2+ entry currents in H9c2 cells, whole cell patch-clamp; type: cell-based, rat; conditions: KMUP-3 10 μM with KT5823 3 μM or Y27642 50 μM
# From the text: To measure the ICa through L-type Ca^2+ channels, whole cell patch-clamp electrophysiology was used in rat heart-derived H9c2 cells as previously described. In brief, H9c2 cells were placed in a recording dish and perfused with a bath solution containing (in mM): 135 tetraethylammonium (TEA)-Cl, 1.8 CaCl2, 2 MgCl2, 10 glucose, and 10 HEPES (pH 7.4, Tris). […] Negative pressure was briefly applied to rupture the membrane and a gigaohm seal was obtained.
# H9c2 cells were clamped at −80 mV with step depolarizations (300 ms) from −80 to 0 mV to evoke whole-cell ICa. Voltage clamped cells were equilibrated for 15 min prior to experimentation. Membrane currents were recorded on an Axopatch 700A amplifier (Axon Instruments, Union City, Calif.), filtered at 1 kHz using a low-pass Bessel filter, digitized at 5 kHz and stored on a computer for subsequent analysis with Clampfit 9.0. Following equilibration, ICa was monitored in the presence and absence of KMUP-3 or KMUP-3 amine salt (1, 10, 100 μM). To ascertain whether PKG or ROCK signaling was involved in the KMUP-3-induced decreases in ICa, H9c2 cells were incubated for 15 min with the combination of KMUP-3 or KMUP-3 amine salt (10 μM) and PKG antagonist KT5823 (3 μM) or ROCK inhibitor Y-27632 (50 μM). All electrical recordings were performed at room temperature.
# [3] = test system: isolated spontaneously beating right atrium; assay: Spontaneously beating right atrium, organ bath; type: cell-based, guinea-pig
# Experimental: as §1
# Spontaneously beating right atrium was dissected from the heart and mounted in a 10 ml organ bath with one end fixed and the other end connected to a force displacement transducer (Grass, Model FT03). The frequency of contraction was measured on a separate channel by a tachometer (Coulbourn, Model S77-26) connected to a high-speed videograph (Coulbourn, AT L19-69). These experiments were carried out at 32.5° C. in Krebs solution. The atria strip was pre-stretched to a baseline tension of 0.5 g and equilibrated for 90 min in aerated (95% O2+5% CO2) Krebs solution before the experimental protocols were initiated. The atria were then allowed a 30-60 min washout period to re-stabilize. KMUP-3 or KMUP-3 amine salt (0.1, 1.0, 10, 100 μM) were then cumulatively added to the organ bath. […]
# [4] = test system: electrically-stimulated left atria; assay: Electrically-stimulated beating left atrium, organ bath; type: cell-based, guinea-pig; conditions: 0.1~30 μM, electrical stimulation 1 Hz
compound,measurement,setting,value
"C[C@@H](N)[C@H]1CC[C@H](C(=O)Nc2ccncc2)CC1 [Y27632, reference compound]",Effect of pretreatment on KMUP-3-induced positive inotropic activity,[1],reduced
same,Effect on KMUP-3-induced expression of PKA,PKA,inhibited
same,"Effect of pretreatment on the effects (LVSP, dP/dt, MABP) induced by KMUP-3",[2],inhibited
same,Effect on KMUP-3-induced expression of ROCK II,ROCKII,inhibited
same,Effect of pretreatment on KMUP-3-induced translocation of PKCα,PKCα,insignificantly prevented
same,Effect of combination on currents reduced by KMUP-3,L-type Ca2+ channels,restored
CN1[C@@H]2CC[C@H]1C[C@@H](OC(=O)C(CO)c1ccccc1)C2 (stereo partly drawn) [atropine],Effect of pretreatment on the beating frequency decreased by KMUP-3,"[3]; atropine 1 μM, 7-nitroindazole 100 μM",up-regulated
"O=C(c1ccc(F)cc1)C1CCN(CCn2c(=O)[nH]c3ccccc3c2=O)CC1 [ketanserin, reference compound]",Effect of pretreatment on KMUP-3-induced positive inotropic activity,[1],reduced
same,"Effect of pretreatment on the effects (LVSP, dP/dt, MABP) induced by KMUP-3",[2],inhibited
Cc1[nH]c(=O)c(C#N)cc1-c1ccncc1 [milrinone],Left atrium contractility,[4],concentration-dependently increased
same,Chronotropic effect (beating frequency),[3]; 0.1-30 μM,increased
same,Inotropic effect (contraction force),[3]; 0.1-30 μM,increased
"CC(C)NCC(O)COc1cccc2ccccc12 (stereo not drawn) [propranolol, reference compound]",Effect of pretreatment on KMUP-3-induced positive inotropic activity,[1],reduced
same,"Effect of pretreatment on the effects (LVSP, dP/dt, MABP) induced by KMUP-3",[2],inhibited
"C3 exoenzyme: C3 exoenzyme, used at 50 μg/mL as pretreatment",Effect of pretreatment on KMUP-3-induced positive inotropic activity,[1],reduced
